Measured values from PubChem BioAssay AID2060893 (Molecular Pharmacology Branch, DTP, NCI, 2025).

Tested on: K86415-001-R-J1-PDC complex spheroids, viability
Assay: Anticancer human tumor K86415-001-R-J1-PDC patient-derived lung adenocarcinoma cell line growth inhibition [RAS]
Settings: for IC50: curve of first compound; for viability, T/C: stronger effect = lower value
Source text: RAS pathway inhibitors in Combinations in Complex Spheroids
A high-throughput screen of multi-cell type tumor spheroids was designed to identify active combinations of RAS pathway inhibitors and targeted small molecules. Complex spheroids include a stromal component modeled by human endothelial cells (HUVEC) and fibroblasts modeled by human mesenchymal stem cells (MSCs). The concentration ranges selected for each drug and investigational agent were based upon clinically achievable concentrations if the clinical Cmax of the agent was known.
Compounds. The drugs and investigational agents: abemaciclib (NSC768073), cobimetinib (NSC768068), divarasib (GDC6063, NSC841802), docetaxel (NSC628503), GDC-1971 (RLY-1971, NSC841576), gemcitabine (NSC613327), inavolisib (NSC800729), ipatasertib (NSC767898), KB-0742 (NSC834161), MRTX-1133 (NSC836407), osimertinib (NSC779217), RMC-4630 (NSC839698), RMC-6236 (NSC851965), RMC-6291 (NSC852671), Ro-3306 (NSC812927), sapanisertib (NSC764658), SN-38 (NSC673596), staurosporine (NSC755774), SY5609 (NSC837396), and tovorafenib (DAY101, NSC766906), were obtained from the National Cancer Institute (NCI) Developmental Therapeutics Program Chemical Repository. The FDA-approved anticancer drug set is available from the NCI Developmental Therapeutics Program. […] The stock solutions were prepared in dimethyl sulfoxide (DMSO, Sigma-Aldrich, St. Louis, MO, cat. D2650) at 800-fold the tested concentration and stored at -70 degrees C prior to their use. All drugs and investigational agents were tested over a range starting from a high concentration at or near the clinical Cmax and decreasing in half-log increments. If the clinical Cmax for an agent had not been determined, the highest concentration tested was 10 microM.
Cell Culture. All cells were maintained in an incubator at 37 degrees C and 5% CO2 with 95% humidity. The PDC lines were cultured according to standard operating procedures established by the NCI PDMR. All PDCs were thawed and cultured in Matrigel-coated flasks prepared with a working solution of 1X Ham's F-12 nutrient mix, without supplementation (Invitrogen, Waltham, MA, cat. 11765054), 100 U/mL penicillin-streptomycin (Invitrogen, cat. 15140122), and 2.5% Matrigel (Corning Inc., Corning, NY, cat. 354248) for the first three passages. The 362531-283-R-J2-PDC and 782815-120-R-J1-PDC lines were cultured in 6C/Colon 1B media, which includes advanced DMEM/F-12 (Thermo Fisher Scientific, cat. 12634028), 10 mM HEPES (Thermo Fisher Scientific, cat. 15630080), 1X GlutaMAX supplement (Thermo Fisher Scientific, cat. 35050061), 0.1 mg/mL primocin (InvivoGen, San Diego, CA, cat. ant-pm-2), 10% defined fetal bovine serum, heat inactivated (HyClone Laboratories Inc., Logan, UT, cat. SH30070.03HI), 50% L-WRN conditioned media (ATCC, cat. CRL-3276), 1.25 mM N-Acetyl-L-cysteine (Sigma-Aldrich, cat. A9165), 10 mM nicotinamide (Sigma-Aldrich, cat. N0636), 1X B-27 supplement (Thermo Fisher Scientific, cat. 17504044), 1X N-2 supplement (Thermo Fisher Scientific, cat. 17502048), 50 ng/mL human EGF (Thermo Fisher Scientific, cat. PHG0311), and 10 microM Y-27632 dihydrochloride (Tocris Bioscience, cat. 1254). The K12877-001-R-J1-PDC line was cultured in 6I media, which includes all 6C/Colon 1B media plus 10 ng/mL human FGF-10 (PeproTech, cat. 100-26), 1 ng/mL human FGF-2 (PeproTech, cat. 100-18B), 1 µM prostaglandin E2 (Tocris Bioscience, cat. 2296), […] hydrocortisone (Sigma-Aldrich, cat. H4001), and […] bovine insulin (Sigma-Aldrich, cat. I6634). The K86415-001-R-J1-PDC line was cultured in 6D media, which includes all 6C/Colon 1B media components minus the L-WRN conditioned media. The 485176-168-R4-J1-PDC was cultured in PANC media, which includes all 6C/Colon 1B media plus 100 ng/mL human FGF-10 (PeproTech, cat. 100-26), 500 nM SB-431542 (Selleckchem, cat. S1067), and 10 nM gastrin (Tocris Bioscience, cat. 3006). […]

[1] = second compound 0.0316 µM, first compound 0.0316 µM
[2] = second compound 0.0316 µM, first compound 0.1 µM
[3] = second compound 0.0316 µM, first compound 0.316 µM
[4] = second compound 0.0316 µM, first compound 1 µM
[5] = second compound 0.1 µM, first compound 0.0316 µM
[6] = second compound 0.1 µM, first compound 0.1 µM
[7] = second compound 0.1 µM, first compound 0.316 µM
[8] = second compound 0.1 µM, first compound 1 µM
[9] = second compound 0.316 µM, first compound 0.0316 µM
[10] = second compound 0.316 µM, first compound 0.1 µM
[11] = second compound 0.316 µM, first compound 0.316 µM
[12] = second compound 0.316 µM, first compound 1 µM
[13] = second compound 1 µM, first compound 0.0316 µM
[14] = second compound 1 µM, first compound 0.1 µM
[15] = second compound 1 µM, first compound 0.316 µM
[16] = second compound 1 µM, first compound 1 µM
[17] = second compound 3.16 µM, first compound 0.0316 µM
[18] = second compound 3.16 µM, first compound 0.1 µM
[19] = second compound 3.16 µM, first compound 0.316 µM
[20] = second compound 3.16 µM, first compound 1 µM
[21] = second compound 10 µM, first compound 0.0316 µM
[22] = second compound 10 µM, first compound 0.1 µM
[23] = second compound 10 µM, first compound 0.316 µM
[24] = second compound 10 µM, first compound 1 µM
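Further: spheroids exposed to agents for seven days before readout.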

Q: Which results are given for `O=C(c1ccc(F)c(F)c1Nc1ccc(I)cc1F)N1CC(O)([C@@H]2CCCCN2)C1` + C#Cc1c(F)ccc2cc(O)cc(-c3ncc4c(N5CC6CCC(C5)N6)nc(OCC56CCCN5CC(F)C6)nc4c3F)c12?
A: IC50 (second compound 0.0316 µM): 0.0642 µM; IC50 (second compound 0.1 µM): 0.056 µM; IC50 (second compound 0.316 µM): 0.0382 µM; IC50 (second compound 1 µM): 0.0125 µM; IC50 (second compound 3.16 µM): < 0.00316 µM; IC50 (second compound 10 µM): < 0.00316 µM; viability, T/C (second compound 0.0316 µM, first compound 0.00316 µM): 89%; viability, T/C (second compound 0.0316 µM, first compound 0.01 µM): 83.5%; viability, T/C [1]: 67.7%; viability, T/C [2]: 38%; viability, T/C [3]: 19.8%; viability, T/C [4]: 8.49%; viability, T/C (second compound 0.1 µM, first compound 0.00316 µM): 88.1%; viability, T/C (second compound 0.1 µM, first compound 0.01 µM): 79.9%; viability, T/C [5]: 61.3%; viability, T/C [6]: 37%; viability, T/C [7]: 22.2%; viability, T/C [8]: 8.46%; viability, T/C (second compound 0.316 µM, first compound 0.00316 µM): 74.5%; viability, T/C (second compound 0.316 µM, first compound 0.01 µM): 74.5%; viability, T/C [9]: 52.2%; viability, T/C [10]: 29.2%; viability, T/C [11]: 17.2%; viability, T/C [12]: 8.24%; viability, T/C (second compound 1 µM, first compound 0.00316 µM): 61.2%; viability, T/C (second compound 1 µM, first compound 0.01 µM): 54.9%; viability, T/C [13]: 35.9%; viability, T/C [14]: 22%; viability, T/C [15]: 12.4%; viability, T/C [16]: 5.88%; viability, T/C (second compound 3.16 µM, first compound 0.00316 µM): 28.6%; viability, T/C (second compound 3.16 µM, first compound 0.01 µM): 32%; viability, T/C [17]: 20.6%; viability, T/C [18]: 13.8%; viability, T/C [19]: 8.69%; viability, T/C [20]: 3.9%; viability, T/C (second compound 10 µM, first compound 0.00316 µM): 14.4%; viability, T/C (second compound 10 µM, first compound 0.01 µM): 13.1%; viability, T/C [21]: 9.68%; viability, T/C [22]: 7.57%; viability, T/C [23]: 4.87%; viability, T/C [24]: 3%

Q: What does the source list for `C[C@@H](NC(=O)c1ncnc(N)c1Cl)c1ncc(C(=O)Nc2cc(C(F)(F)F)c(Cl)cn2)s1` + C#Cc1c(F)ccc2cc(O)cc(-c3ncc4c(N5CC6CCC(C5)N6)nc(OCC56CCCN5CC(F)C6)nc4c3F)c12?
A: IC50 (second compound 0.0316 µM): > 10 µM; IC50 (second compound 0.1 µM): > 10 µM; IC50 (second compound 0.316 µM): > 10 µM; IC50 (second compound 1 µM): 7.33 µM; IC50 (second compound 3.16 µM): 0.183 µM; IC50 (second compound 10 µM): < 0.0316 µM; viability, T/C [1]: 107%; viability, T/C [2]: 115%; viability, T/C [3]: 104%; viability, T/C [4]: 81.1%; viability, T/C (second compound 0.0316 µM, first compound 3.16 µM): 61.1%; viability, T/C (second compound 0.0316 µM, first compound 10 µM): 56.5%; viability, T/C [5]: 113%; viability, T/C [6]: 112%; viability, T/C [7]: 93%; viability, T/C [8]: 79.9%; viability, T/C (second compound 0.1 µM, first compound 3.16 µM): 67.5%; viability, T/C (second compound 0.1 µM, first compound 10 µM): 56.8%; viability, T/C [9]: 119%; viability, T/C [10]: 108%; viability, T/C [11]: 88.8%; viability, T/C [12]: 79.8%; viability, T/C (second compound 0.316 µM, first compound 3.16 µM): 65.5%; viability, T/C (second compound 0.316 µM, first compound 10 µM): 53.6%; viability, T/C [13]: 83.9%; viability, T/C [14]: 85.9%; viability, T/C [15]: 69.1%; viability, T/C [16]: 69%; viability, T/C (second compound 1 µM, first compound 3.16 µM): 59.7%; viability, T/C (second compound 1 µM, first compound 10 µM): 46.3%; viability, T/C [17]: 46.9%; viability, T/C [18]: 53.5%; viability, T/C [19]: 52.3%; viability, T/C [20]: 42.6%; viability, T/C (second compound 3.16 µM, first compound 3.16 µM): 38.4%; viability, T/C (second compound 3.16 µM, first compound 10 µM): 30.2%; viability, T/C [21]: 19.5%; viability, T/C [22]: 26%; viability, T/C [23]: 23.1%; viability, T/C [24]: 18.2%; viability, T/C (second compound 10 µM, first compound 3.16 µM): 19.6%; viability, T/C (second compound 10 µM, first compound 10 µM): 15.3%
